Results taken from US9302999B2, “Substituted triazoles as herbicides” (E. I. DU PONT DE NEMOURS AND COMPANY, priority 2012, dated 2016).
Like-named read-outs stand apart in the source and are kept apart here.

What was measured:
soybean (Glycine max) = assay: Test C pre-/postemergence: soybean; assay type: in vivo
In short: (§1)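 Preemergence on seeds in loam/sand, postemergence on 2–18 cm (1–4-leaf) plants in peat-based medium; compounds in non-phytotoxic solvent with surfactant. After 13–15 days in greenhouse, visual rating versus controls, 0 (no effect) to 100 (complete control).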

[1] = test system: foxtail, giant (giant foxtail, Setaria faberii); assay: Test A pre-/postemergence: foxtail, giant; assay type: in vivo; conditions: for pest or weed control at 125 g/ha / pest or weed control at 500 g/ha: Setaria faberi, 240 h
In short: (§2)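 Pre: directed soil spray after planting in loam + sand. Post: same formulation (non-phytotoxic solvent + surfactant) on 1–2-leaf plants, 2–10 cm. Greenhouse ~10 d; visual injury 0–100 vs untreated.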

[2] = test system: ragweed (common ragweed, Ambrosia elation); assay: Test C pre-/postemergence: ragweed; assay type: in vivo
In short: as §1

[3] = test system: velvetleaf (Abutilon theophrasti); assay: Test C pre-/postemergence: velvetleaf; assay type: in vivo
In short: as §1

kochia (Kochia scoparia) = assay: Test C pre-/postemergence: kochia; assay type: in vivo; conditions: Postemergence
In short: as §1

[4] = test system: crabgrass, large (large crabgrass, Digitaria sanguinalis); assay: Test A pre-/postemergence: crabgrass, large; assay type: in vivo; conditions: for pest or weed control at 125 g/ha / pest or weed control at 500 g/ha: Digitaria sanguinalis, 240 h
In short: as §2

[5] = test system: morningglory (Ipomoea spp.); assay: Test A pre-/postemergence: morningglory; assay type: in vivo; conditions: for pest or weed control at 125 g/ha / pest or weed control at 500 g/ha: Ipomoea, 240 h
In short: as §2

Barnyardgrass = assay: Test C preemergence: barnyardgrass; assay type: in vivo, Echinochloa crus-galli
[6] = test system: sedge, umbrella (small-flower umbrella sedge Cyperus difformis); assay: Test B flooded paddy: sedge, umbrella; assay type: in vivo; conditions: Flood, applied to paddy water at 2-leaf stage, visually evaluated after 13 to 15 days
In short: (§3)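 Flooded-pot test: compound dosed into 3 cm of standing water above soil when plants had two leaves. Visual control ratings (0–100) versus untreated plants after 13–15 d.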

[7] = test system: nutsedge, yellow (yellow nutsedge, Cyperus esculentus); assay: Test C pre-/postemergence: nutsedge, yellow; assay type: in vivo
In short: as §1

[8] = test system: ducksalad (Heteranthera limosa); assay: Test B flooded paddy: ducksalad; assay type: in vivo; conditions: Flood, applied to paddy water at 2-leaf stage, visually evaluated after 13 to 15 days
In short: as §3

[9] = Postemergence, 16 g ai/ha, scale 0 to 100, 0 no effect, 100 complete control
[10] = Postemergence, 31 g ai/ha, scale 0 to 100 (0 no effect, 100 complete control)
[11] = Postemergence, 62 g ai/ha, scale 0 to 100 (0 no effect, 100 complete control)
[12] = Postemergence, 125 g ai/ha, scale 0 to 100, 0 no effect, 100 complete control
[13] = Preemergence, 16 g ai/ha, scale 0 (no effect) to 100 (complete control)
[14] = Preemergence, 31 g ai/ha, scale of 0 to 100, 0 is no effect, 100 is complete control
[15] = Preemergence, 62 g ai/ha, scale of 0 to 100, 0 is no effect, 100 is complete control
[16] = Preemergence, 125 g ai/ha, scale 0 to 100, 0 no effect, 100 complete control
[17] = Postemergence, 125 g ai/ha, 0 to 100 scale, 0 is no effect, 100 is complete control
[18] = Postemergence, 500 g ai/ha, visual rating on 0 to 100 scale (0 no effect, 100 complete control), approximately ten days
[19] = Preemergence, 125 g ai/ha, 0 to 100 scale where 0 is no effect and 100 is complete control
[20] = Preemergence, 500 g ai/ha, 0 to 100 scale (0 no effect, 100 complete control)
[21] = 31 g ai/ha, scale 0 to 100 (0 no effect, 100 complete control)
[22] = 62 g ai/ha, scale 0 to 100 (0 no effect, 100 complete control)
[23] = 125 g ai/ha, scale 0 to 100, 0 no effect, 100 complete control
[24] = 62 g ai/ha, scale of 0 to 100, 0 is no effect, 100 is complete control
[25] = Postemergence, 250 g ai/ha, scale 0 to 100
[26] = Preemergence, 31 g ai/ha, scale 0 (no effect) to 100 (complete control)
[27] = Preemergence, 250 g ai/ha, scale 0 to 100, 0 no effect, 100 complete control

## FCc1nn(-c2ccc(F)cc2)nc1Oc1ccnc(C(F)(F)F)c1 [Compound 160]
Soybean (Glycine max); [9]
  Plant response rating, Soybean: 15
Soybean (Glycine max); [10]
  Plant response rating, Soybean: 25
Soybean (Glycine max); [11]
  Plant response rating, Soybean: 25
Soybean (Glycine max); [12]
  Plant response rating, Soybean: 30
Soybean (Glycine max); [13]
  Plant response rating, Soybean: 0
Soybean (Glycine max); [14]
  Plant response rating, Soybean: 5
Soybean (Glycine max); [15]
  Plant response rating, Soybean: 20
Soybean (Glycine max); [16]
  Plant response rating, Soybean: 20
[1]; [17]
  Plant response rating, Foxtail, Giant: 90
[1]; [18]
  Foxtail, Giant plant response rating: 90
[1]; [19]
  Plant response rating, Foxtail, Giant: 100
[1]; [20]
  Plant response rating, Foxtail, Giant: 100
[2]; [9]
  Plant response rating, Ragweed: 10
[2]; [10]
  Plant response rating, Ragweed: 10
[2]; [11]
  Plant response rating, Ragweed: 40
[2]; [12]
  Plant response rating, Ragweed: 40
[2]; [13]
  Plant response rating, Ragweed: 0
[2]; [14]
  Plant response rating, Ragweed: 0
[2]; [15]
  Plant response rating, Ragweed: 5
[2]; [16]
  Plant response rating, Ragweed: 5
[3]; [9]
  Plant response rating, Velvetleaf: 20
[3]; [10]
  Plant response rating, Velvetleaf: 30
[3]; [11]
  Plant response rating, Velvetleaf: 50
[3]; [12]
  Plant response rating, Velvetleaf: 75
[3]; [13]
  Plant response rating, Velvetleaf: 0
[3]; [14]
  Plant response rating, Velvetleaf: 5
[3]; [15]
  Plant response rating, Velvetleaf: 30
[3]; [16]
  Plant response rating, Velvetleaf: 30
Kochia (Kochia scoparia); 16 g ai/ha, scale 0 to 100, 0 no effect, 100 complete control
  Plant response rating, Kochia: 90
Kochia (Kochia scoparia); [21]
  Plant response rating, Kochia: 90
Kochia (Kochia scoparia); [22]
  Plant response rating, Kochia: 95
Kochia (Kochia scoparia); [23]
  Plant response rating, Kochia: 95
[4]; [17]
  Plant response rating, Crabgrass, Large: 90
[4]; [18]
  Crabgrass, Large plant response rating: 90
[4]; [19]
  Plant response rating, Crabgrass, Large: 100
[4]; [20]
  Plant response rating, Crabgrass, Large: 100
[5]; [17]
  Plant response rating, Morningglory: 90
[5]; [18]
  Morningglory plant response rating: 90
[5]; [19]
  Plant response rating, Morningglory: 40
[5]; [20]
  Plant response rating, Morningglory: 70
Barnyardgrass; 16 g ai/ha, scale 0 (no effect) to 100 (complete control)
  Plant response rating, Barnyardgrass: 5
Barnyardgrass; 31 g ai/ha, scale of 0 to 100, 0 is no effect, 100 is complete control
  Plant response rating, Barnyardgrass: 35
Barnyardgrass; [24]
  Plant response rating, Barnyardgrass: 90
Barnyardgrass; [23]
  Plant response rating, Barnyardgrass: 100
[6]; 250 g ai/ha
  Plant response rating, Sedge, Umbrella (0 to 100 scale, 0 is no effect, 100 is complete control): 85
[7]; [9]
  Plant response rating, Nutsedge, Yellow: 5
[7]; [10]
  Plant response rating, Nutsedge, Yellow: 10
[7]; [11]
  Plant response rating, Nutsedge, Yellow: 10
[7]; [12]
  Plant response rating, Nutsedge, Yellow: 15
[7]; [13]
  Plant response rating, Nutsedge, Yellow: 0
[7]; [14]
  Plant response rating, Nutsedge, Yellow: 0
[7]; [15]
  Plant response rating, Nutsedge, Yellow: 0
[7]; [16]
  Plant response rating, Nutsedge, Yellow: 0
[8]; 250 g ai/ha
  Plant response rating, Ducksalad (0 to 100 scale, 0 is no effect, 100 is complete control): 90

## CCOc1nn(-c2ccc(C(F)(F)F)cc2)nc1Cc1ccnc(C(F)(F)F)c1 [Compound 164, 4-[[5-ethoxy-2-[4-(trifluoromethyl)phenyl]-2H-1,2,3-triazol-4-yl]methyl]-2-(trifluoromethyl)pyridine]
Soybean (Glycine max); [10]
  Plant response rating, Soybean: 30
Soybean (Glycine max); [11]
  Plant response rating, Soybean: 40
Soybean (Glycine max); [25]
  Plant response rating, Soybean: 50
Soybean (Glycine max); [26]
  Plant response rating, Soybean: 0
Soybean (Glycine max); [15]
  Plant response rating, Soybean: 0
Soybean (Glycine max); [16]
  Plant response rating, Soybean: 5
Soybean (Glycine max); [27]
  Plant response rating, Soybean: 5
[1]; post-emergence, Postemergence, 125 g ai/ha, 0 to 100 scale, 0 is no effect, 100 is complete control, read-out: Plant response rating, Foxtail, Giant
  pest or weed control at 125 g/ha: 90%
[1]; post-emergence, Postemergence, 500 g ai/ha, 0 to 100 scale, 0 is no effect, 100 is complete control, read-out: Foxtail, Giant plant response rating
  pest or weed control at 500 g/ha: 90%
[1]; pre-emergence, Preemergence, 125 g ai/ha, 0 to 100 scale where 0 is no effect and 100 is complete control, read-out: Plant response rating, Foxtail, Giant
  pest or weed control at 125 g/ha: 100%
[1]; pre-emergence, Preemergence, 500 g ai/ha, 0 to 100 scale (0 no effect, 100 complete control), read-out: Plant response rating, Foxtail, Giant
  pest or weed control at 500 g/ha: 100%
[2]; [10]
  Plant response rating, Ragweed: 50
[2]; [11]
  Plant response rating, Ragweed: 50
[2]; [25]
  Plant response rating, Ragweed: 60
[2]; [26]
  Plant response rating, Ragweed: 20
[2]; [15]
  Plant response rating, Ragweed: 20
[2]; [16]
  Plant response rating, Ragweed: 25
[2]; [27]
  Plant response rating, Ragweed: 30
[3]; [10]
  Plant response rating, Velvetleaf: 25
[3]; [11]
  Plant response rating, Velvetleaf: 30
[3]; [12]
  Plant response rating, Velvetleaf: 40
[3]; [25]
  Plant response rating, Velvetleaf: 40
[3]; [26]
  Plant response rating, Velvetleaf: 10
[3]; [15]
  Plant response rating, Velvetleaf: 10
[3]; [16]
  Plant response rating, Velvetleaf: 30
[3]; [27]
  Plant response rating, Velvetleaf: 70
Kochia (Kochia scoparia); [21]
  Plant response rating, Kochia: 40
Kochia (Kochia scoparia); [22]
  Plant response rating, Kochia: 40
Kochia (Kochia scoparia); [23]
  Plant response rating, Kochia: 40
Kochia (Kochia scoparia); 250 g ai/ha, scale 0 to 100
  Plant response rating, Kochia: 90
[4]; post-emergence, Postemergence, 125 g ai/ha, 0 to 100 scale, 0 is no effect, 100 is complete control, read-out: Plant response rating, Crabgrass, Large
  pest or weed control at 125 g/ha: 90%
[4]; post-emergence, Postemergence, 500 g ai/ha, 0 to 100 scale, 0 is no effect, 100 is complete control, read-out: Crabgrass, Large plant response rating
  pest or weed control at 500 g/ha: 90%
[4]; pre-emergence, Preemergence, 125 g ai/ha, 0 to 100 scale where 0 is no effect and 100 is complete control, read-out: Plant response rating, Crabgrass, Large
  pest or weed control at 125 g/ha: 100%
[4]; pre-emergence, Preemergence, 500 g ai/ha, 0 to 100 scale (0 no effect, 100 complete control), read-out: Plant response rating, Crabgrass, Large
  pest or weed control at 500 g/ha: 100%
[5]; post-emergence, Postemergence, 125 g ai/ha, 0 to 100 scale, 0 is no effect, 100 is complete control, read-out: Plant response rating, Morningglory
  pest or weed control at 125 g/ha: 100%
[5]; post-emergence, Postemergence, 500 g ai/ha, 0 to 100 scale, 0 is no effect, 100 is complete control, read-out: Morningglory plant response rating
  pest or weed control at 500 g/ha: 100%
[5]; pre-emergence, Preemergence, 125 g ai/ha, 0 to 100 scale where 0 is no effect and 100 is complete control, read-out: Plant response rating, Morningglory
  pest or weed control at 125 g/ha: 80%
[5]; pre-emergence, Preemergence, 500 g ai/ha, 0 to 100 scale (0 no effect, 100 complete control), read-out: Plant response rating, Morningglory
  pest or weed control at 500 g/ha: 90%
Barnyardgrass; 31 g ai/ha, scale 0 (no effect) to 100 (complete control)
  Plant response rating, Barnyardgrass: 5
Barnyardgrass; [24]
  Plant response rating, Barnyardgrass: 15
Barnyardgrass; [23]
  Plant response rating, Barnyardgrass: 25
[6]; 125 g ai/ha
  Plant response rating, Sedge, Umbrella (0 to 100 scale, 0 is no effect, 100 is complete control): 75
[7]; [10]
  Plant response rating, Nutsedge, Yellow: 0
[7]; [11]
  Plant response rating, Nutsedge, Yellow: 5
[7]; [12]
  Plant response rating, Nutsedge, Yellow: 5
[7]; [25]
  Plant response rating, Nutsedge, Yellow: 10
[7]; [26]
  Plant response rating, Nutsedge, Yellow: 0
[7]; [15]
  Plant response rating, Nutsedge, Yellow: 0
[7]; [16]
  Plant response rating, Nutsedge, Yellow: 0
[7]; [27]
  Plant response rating, Nutsedge, Yellow: 0
[8]; 125 g ai/ha
  Plant response rating, Ducksalad (0 to 100 scale, 0 is no effect, 100 is complete control): 0
